Reference: US20180318287A1, “Imidazo[4,5-c]quinolin-2-one Compounds and Their Use in Treating Cancer” (ASTRAZENECA AB, priority 2015, published 2018)

What was measured:
Format in all cases: cell-based
ATR kinase = biological target: T1, ATR kinase (Homo sapiens, UniProt Q13535); test: Assay b): ATR cellular potency (pChk1 Ser345 in HT29 cells after 4NQO); settings: HT29 cells, 4NQO, pChk1 Ser345; Table 2; read-out: Assay b) ATR Cell IC50
T1 construct: endogenous in cells; host or cells: HT29 cells (ECACC #85061109)
Procedure: ATR is a PI 3-kinase-related kinase which phosphorylates multiple substrates on serine or threonine residues in response to DNA damage during or replication blocks. Chk1, a downstream protein kinase of ATR, plays a key role in DNA damage checkpoint control. Activation of Chk1 involves phosphorylation of Ser317 and Ser345 (the latter regarded as the preferential target for phosphorylation/activation by ATR).
The following morning compound of Formula (I) in 100% DMSO were added to assay plates by acoustic dispensing. After 1 h incubation at 37° C. and 5% CO2, 40 nl of 3 mM 4NQO in 100% DMSO was added to all wells by acoustic dispensing, except minimum control wells which were left untreated with 4NQO to generate a null response control. Plates were returned to the incubator for a further 1 h. […] Then 20 μl of 0.1% Triton X100 in PBS was added and incubated for 10 minutes at r.t., to permeabalise cells. Then the plates were washed once with 50 μl/well PBS, using a Biotek EL405 plate washer.
After 2 h incubation at r.t., the plates were washed three times with 50 μl/well PBS, using a Biotek EL405 plate washer, and plates were then sealed with black plate seals until read. Plates were read using an ArrayScan VTI instrument, using an XF53 filter with 10× objective.

ATM kinase = biological target: T2, ATM kinase (Homo sapiens, UniProt Q13315); test: Assay a): ATM cellular potency (pATM Ser1981 in irradiated HT29 cells); settings: HT29 cells, X-ray irradiation, pATM Ser1981; Table 2; read-out: Assay a) ATM Cell IC50
T2 construct: endogenous in cells; host or cells: HT29 cells (ECACC #85061109)
T2 sequence (Q13315 whole entry): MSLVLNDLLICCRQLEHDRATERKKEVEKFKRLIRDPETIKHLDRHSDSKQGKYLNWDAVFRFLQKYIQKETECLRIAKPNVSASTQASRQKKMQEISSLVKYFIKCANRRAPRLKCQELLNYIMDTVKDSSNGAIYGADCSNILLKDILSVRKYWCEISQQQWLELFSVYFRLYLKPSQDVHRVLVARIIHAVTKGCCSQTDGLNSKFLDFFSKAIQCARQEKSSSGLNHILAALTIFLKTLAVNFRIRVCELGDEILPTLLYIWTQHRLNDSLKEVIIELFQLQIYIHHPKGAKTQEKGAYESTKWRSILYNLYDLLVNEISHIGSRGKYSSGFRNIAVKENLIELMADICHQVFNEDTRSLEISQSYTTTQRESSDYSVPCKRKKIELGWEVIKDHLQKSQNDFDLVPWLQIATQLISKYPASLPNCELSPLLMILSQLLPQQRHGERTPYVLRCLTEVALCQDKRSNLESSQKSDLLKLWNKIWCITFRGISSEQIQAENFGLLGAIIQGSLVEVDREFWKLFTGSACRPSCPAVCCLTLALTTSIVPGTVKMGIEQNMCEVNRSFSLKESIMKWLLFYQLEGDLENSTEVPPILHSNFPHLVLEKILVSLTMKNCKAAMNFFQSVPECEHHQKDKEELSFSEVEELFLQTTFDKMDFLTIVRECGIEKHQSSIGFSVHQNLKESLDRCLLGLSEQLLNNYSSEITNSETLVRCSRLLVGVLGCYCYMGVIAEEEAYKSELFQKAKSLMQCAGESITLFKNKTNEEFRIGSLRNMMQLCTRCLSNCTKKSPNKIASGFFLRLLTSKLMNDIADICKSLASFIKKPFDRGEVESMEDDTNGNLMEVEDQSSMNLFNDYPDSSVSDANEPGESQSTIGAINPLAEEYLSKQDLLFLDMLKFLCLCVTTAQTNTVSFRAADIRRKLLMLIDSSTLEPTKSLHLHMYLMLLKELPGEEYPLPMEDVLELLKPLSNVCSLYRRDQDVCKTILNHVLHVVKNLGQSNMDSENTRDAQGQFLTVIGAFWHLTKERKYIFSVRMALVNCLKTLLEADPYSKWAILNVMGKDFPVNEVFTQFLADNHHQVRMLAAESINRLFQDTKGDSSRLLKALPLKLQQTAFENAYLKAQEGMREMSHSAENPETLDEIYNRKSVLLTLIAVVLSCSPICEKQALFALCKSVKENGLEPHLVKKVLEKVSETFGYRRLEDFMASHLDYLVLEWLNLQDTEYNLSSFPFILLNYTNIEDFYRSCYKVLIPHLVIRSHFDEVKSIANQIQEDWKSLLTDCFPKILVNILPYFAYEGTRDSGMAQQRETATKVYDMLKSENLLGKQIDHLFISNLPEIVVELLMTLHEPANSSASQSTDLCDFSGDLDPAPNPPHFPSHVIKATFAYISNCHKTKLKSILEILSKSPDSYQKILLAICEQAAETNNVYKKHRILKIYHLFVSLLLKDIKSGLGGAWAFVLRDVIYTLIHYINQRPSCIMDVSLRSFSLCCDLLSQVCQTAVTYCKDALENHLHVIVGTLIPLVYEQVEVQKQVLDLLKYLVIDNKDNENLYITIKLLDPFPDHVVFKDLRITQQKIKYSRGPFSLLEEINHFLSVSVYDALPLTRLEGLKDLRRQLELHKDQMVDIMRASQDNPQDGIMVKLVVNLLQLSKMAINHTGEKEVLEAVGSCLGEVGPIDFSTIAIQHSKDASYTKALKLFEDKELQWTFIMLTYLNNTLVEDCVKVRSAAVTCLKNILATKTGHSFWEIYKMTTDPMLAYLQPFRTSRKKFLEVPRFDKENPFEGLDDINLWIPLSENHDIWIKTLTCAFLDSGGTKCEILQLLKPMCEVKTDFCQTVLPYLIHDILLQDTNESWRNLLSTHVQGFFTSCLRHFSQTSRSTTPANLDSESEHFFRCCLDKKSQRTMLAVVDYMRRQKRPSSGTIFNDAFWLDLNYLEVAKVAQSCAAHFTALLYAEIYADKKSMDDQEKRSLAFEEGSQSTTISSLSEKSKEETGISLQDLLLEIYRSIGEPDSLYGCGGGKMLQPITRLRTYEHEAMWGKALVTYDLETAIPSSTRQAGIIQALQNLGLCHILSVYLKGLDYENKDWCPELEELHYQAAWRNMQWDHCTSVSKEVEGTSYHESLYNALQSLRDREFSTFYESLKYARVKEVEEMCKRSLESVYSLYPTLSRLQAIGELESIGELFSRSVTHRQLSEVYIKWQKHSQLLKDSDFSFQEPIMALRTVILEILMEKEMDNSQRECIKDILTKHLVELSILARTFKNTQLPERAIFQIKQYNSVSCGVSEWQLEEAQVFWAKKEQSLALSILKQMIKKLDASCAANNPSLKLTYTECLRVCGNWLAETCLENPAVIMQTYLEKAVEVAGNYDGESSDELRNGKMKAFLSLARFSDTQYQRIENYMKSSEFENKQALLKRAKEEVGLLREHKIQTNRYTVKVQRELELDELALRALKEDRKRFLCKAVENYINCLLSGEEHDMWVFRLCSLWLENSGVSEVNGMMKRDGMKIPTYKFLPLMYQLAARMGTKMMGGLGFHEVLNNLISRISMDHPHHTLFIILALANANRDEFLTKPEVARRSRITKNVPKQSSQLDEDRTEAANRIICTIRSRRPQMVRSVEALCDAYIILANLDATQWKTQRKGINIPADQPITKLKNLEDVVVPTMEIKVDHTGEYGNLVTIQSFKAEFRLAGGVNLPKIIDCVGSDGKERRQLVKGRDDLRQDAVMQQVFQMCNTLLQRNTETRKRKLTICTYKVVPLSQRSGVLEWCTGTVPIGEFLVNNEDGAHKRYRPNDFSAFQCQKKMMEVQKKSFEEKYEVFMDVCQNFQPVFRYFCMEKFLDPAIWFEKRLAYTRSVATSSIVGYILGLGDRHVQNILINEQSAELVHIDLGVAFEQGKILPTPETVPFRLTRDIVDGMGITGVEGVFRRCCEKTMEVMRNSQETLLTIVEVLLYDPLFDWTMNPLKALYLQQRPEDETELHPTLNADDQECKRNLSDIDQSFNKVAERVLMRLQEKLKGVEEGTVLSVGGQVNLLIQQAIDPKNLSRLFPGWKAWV
Procedure: Most ATM molecules in the cell are rapidly phosphorylated on this site after doses of radiation as low as 0.5 Gy, and binding of a phosphospecific antibody is detectable after the introduction of only a few DNA double-strand breaks in the cell.
The rationale of the p ATM assay is to identify inhibitors of ATM in cells. HT29 cells are incubated with test compounds for 1 hr prior to X-ray-irradiation. 1 h later the cells are fixed and stained for p ATM (Ser1981). The fluorescence is read on the arrayscan imaging platform.
The following morning compounds of Formula (I) in 100% DMSO were added to assay plates by acoustic dispensing. After 1 h incubation at 37° C. and 5% CO2, plates (up to 6 at a time) were irradiated using the X-RAD 320 instrument (PXi) with equivalent to ˜600cGy. Plates were returned to the incubator for a further 1 h. […] Then 20 μl of 0.1% Triton X100 in PBS was added and incubated for 20 minutes at r.t., to permeabalise cells. Then the plates were washed once with […] PBS, using a Biotek EL405 plate washer.
After 1 h incubation at r.t., the plates were washed three times with 50 μl/well PBS, using a Biotek EL405 plate washer, and plates were sealed and kept in PBS at 4° C. until read. Plates were read using an ArrayScan VTI instrument, using an XF53 filter with 10× objective.

mTOR = biological target: T3, mTOR (Homo sapiens, UniProt P42345); test: Assay d): mTOR cellular potency (phospho-AKT Ser473 in MDA-MB-468 cells); settings: MDA-MB-468 cells, phospho-AKT Ser473, 2 h; Table 2; read-out: Assay d) mTOR Cell IC50
T3 construct: phosphorylation of the Akt protein at Ser473 (AKT lies downstream of PI3Kα in the signal transduction pathway) in the MDA-MB-468 cells; endogenous in cells; host or cells: MDA-MB-468 cells (ATCC HTB 132)
Procedure: This assay was used to measure mTOR inhibition in cells. The aim of the phospho-AKT cell based mechanism of action assay using the Acumen Explorer is to identify inhibitors of either PI3Kα or mTOR-Rictor (Rapamycin insensitive companion of mTOR). This is measured by any decrease in the phosphorylation of the Akt protein at Ser473 (AKT lies downstream of PI3Kα in the signal transduction pathway) in the MDA-MB-468 cells following treatment with compound.
MDA-MB-468 cells (human breast adenocarcinoma #ATCC HTB 132) were seeded at 1500 cells/well in 40 μl of DMEM containing 10% FBS and 1% glutamine into Greiner 384 well black flat-bottomed plates. Cell plates were incubated for 18 h in a 37° C. incubator before dosing with compounds of Formula (I) in 100% DMSO using acoustic dispensing. Compounds were dosed in a 12 point concentration range into a randomised plate map. Control wells were generated either by dosing of 100% DMSO (max signal) or addition of a reference compound (a PI3K-βinhibitor) that completely eliminated the pAKT signal (min control). Plates were incubated at 37° C. for 2 h; cells were then fixed by the addition of 10 μl of a 3.7% formaldehyde solution. After 30 minutes the plates were washed with PBS using a Tecan PW384 plate washer. Wells were blocked and cells permeabilised with the addition of 40 μl of PBS containing 0.5% Tween20 and 1% Marvel™ (dried milk powder) and incubated for 60 minutes at r.t. The plates were washed with PBS containing 0.5% (v/v) Tween20 and 20 μl rabbit anti-phospho AKT Ser473 (Cell Signalling Technologies, #3787) in same PBS-Tween+1% Marvel™ was added and incubated overnight at 4° C.
Plates were washed 3 times with PBS+0.05% Tween 20 using a Tecan PW384. 20 μl of secondary antibody Alexa Fluor 488 anti-Rabbit (Molecular Probes, #A11008) diluted in PBS+0.05% Tween20 containing 1% Marvel™ was added to each well and incubated for 1 h at r.t. Plates were washed three times as before then 20 μl PBS added to each well and plates sealed with a black plate sealer.
The plates were read on an Acumen plate reader as soon as possible, measuring green fluorescence after excitation with 488 nm laser. Using this system IC50 values were generated and quality of plates was determined by control wells. Reference compounds were run each time to monitor assay performance.

SMILES	IC50 (ATR kinase) [nM]	IC50 (ATM kinase) [nM]	IC50 (mTOR) [nM]
CO[C@H]1C[C@H](n2c(=O)n(C)c3cnc4ccc(-c5ccc(OCCCN6CCCC6)cc5)cc4c32)C1 [Example 42, 1-(trans-3-methoxycyclobutyl)-3-methyl-8-[4-(3-pyrrolidin-1-ylpropoxy)phenyl]imidazo[4,5-c]quinolin-2-one]	> 30000	0.689	2170
CO[C@H]1C[C@@H](n2c(=O)n(C)c3cnc4ccc(-c5ccc(OCCCN6CCCCC6)cc5)cc4c32)C1 [Example 43, 1-(cis-3-methoxycyclobutyl)-3-methyl-8-[4-[3-(1-piperidyl)propoxy]phenyl]imidazo[4,5-c]quinolin-2-one]	> 30000	0.254	3630
CN(C)CCOc1ccc(-c2ccc3ncc4c(c3c2)n([C@@H]2CCCOC2)c(=O)n4C)cc1 [Example 48, 8-[4-[2-(dimethylamino)ethoxy]phenyl]-3-methyl-1-[(3R)-tetrahydropyran-3-yl]imidazo[4,5-c]quinolin-2-one]	> 26800	24.7	1780
CO[C@H]1C[C@@H](n2c(=O)n(C)c3cnc4ccc(-c5ccc(OCCN6CCCC6)cc5)cc4c32)C1 [Example 49, 1-(3-(cis)methoxycyclobutyl)-3-methyl-8-[4-(2-pyrrolidin-1-ylethoxy)phenyl]imidazo[4,5-c]quinolin-2-one]	> 30000	36.1	≥ 30000
Cn1c(=O)n([C@@H]2CCCOC2)c2c3cc(-c4ccc(OCCN5CCCC5)cc4)ccc3ncc21 [Example 50, 3-methyl-8-[4-(2-pyrrolidin-1-ylethoxy)phenyl]-1-[(3R)-tetrahydropyran-3-yl]imidazo[4,5-c]quinolin-2-one]	> 25500	13.4	≥ 30000
Cn1c(=O)n([C@H]2CCCOC2)c2c3cc(-c4ccc(OCCN5CCCC5)cc4)ccc3ncc21 [Example 51, 3-methyl-8-[4-(2-pyrrolidin-1-ylethoxy)phenyl]-1-[(3S)-tetrahydropyran-3-yl]imidazo[4,5-c]quinolin-2-one]	> 30000	10.2	1760
CN(C)CCOc1ccc(-c2ccc3ncc4c(c3c2)n(C2CCC2)c(=O)n4C)cc1 [Example 53, 1-cyclobutyl-8-[4-[2-(dimethylamino)ethoxy]phenyl]-3-methyl-imidazo[4,5-c]quinolin-2-one]	> 30000	9.38	10000
CN(C)CCOc1ccc(-c2ccc3ncc4c(c3c2)n(C2CCOCC2)c(=O)n4C)cc1 [Example 54, 8-[4-[2-(dimethylamino)ethoxy]phenyl]-3-methyl-1-tetrahydropyran-4-yl-imidazo[4,5-c]quinolin-2-one]	> 24700	11.1	7730
CO[C@H]1C[C@@H](n2c(=O)n(C)c3cnc4ccc(-c5ccc(OCCN(C)C)cc5)cc4c32)C1 [Example 55, 8-[4-[2-(dimethylamino)ethoxy]phenyl]-1-(3-(cis)methoxycyclobutyl)-3-methyl-imidazo[4,5-c]quinolin-2-one]	> 30000	11.3	4440

Further lines, results first:

IC50 (ATR kinase) [nM]	IC50 (ATM kinase) [nM]	IC50 (mTOR) [nM]	SMILES
21000	0.089	879	CO[C@H]1CC[C@@H](n2c(=O)n(C)c3cnc4ccc(-c5ccc(OCCCN(C)C)cc5)cc4c32)CC1 [Example 25, 8-[4-[3-(dimethylamino)propoxy]phenyl]-1-(cis-4-methoxycyclohexyl)-3-methyl-imidazo[4,5-c]quinolin-2-one]
> 21700	0.364	6990	CN(C)CCCOc1ccc(-c2ccc3ncc4c(c3c2)n(C2CCOCC2)c(=O)n4C)cc1 [Example 44, 8-[4-[3-(dimethylamino)propoxy]phenyl]-3-methyl-1-tetrahydropyran-4-yl-imidazo[4,5-c]quinolin-2-one]
20000	3.95	8650	CN(C)CCCOc1ccc(-c2cc3c(cc2F)ncc2c3n(C3CCOCC3)c(=O)n2C)cc1 [Example 45, 8-[4-[3-(Dimethylamino)propoxy]phenyl]-7-fluoro-3-methyl-1-tetrahydropyran-4-yl-imidazo[4,5-c]quinolin-2-one]
21900	3.57	5630	CO[C@H]1CC[C@H](n2c(=O)n(C)c3cnc4ccc(-c5ccc(OCCN(C)C)cc5)cc4c32)C1 [Example 52, 8-[4-[2-(dimethylamino)ethoxy]phenyl]-1-[(1S,3S)-3-methoxycyclopentyl]-3-methyl-imidazo[4,5-c]quinolin-2-one]
9850	53.1	29200	CN(C)CCOc1ccc(-c2cc3c(cc2F)ncc2c3n(C3CCOCC3)c(=O)n2C)cc1 [Example 56, 8-[4-[2-(Dimethylamino)ethoxy]phenyl]-7-fluoro-3-methyl-1-tetrahydropyran-4-yl-imidazo[4,5-c]quinolin-2-one]
